14 molecules from patent US10092613B2 (NATUREX, S.A., priority 2008, dated 2018) can be followed below.

Data set [1] deals with T1, hepatic Glc-6-Pase system (Homo sapiens, UniProt O43826).
T1 construct: Glc-6-Pase hydrolysis in intact human liver microsomes; tissue BD Biosciences; host or cells: pooled human liver microsomes, intact
T1 sequence (O43826 1-429): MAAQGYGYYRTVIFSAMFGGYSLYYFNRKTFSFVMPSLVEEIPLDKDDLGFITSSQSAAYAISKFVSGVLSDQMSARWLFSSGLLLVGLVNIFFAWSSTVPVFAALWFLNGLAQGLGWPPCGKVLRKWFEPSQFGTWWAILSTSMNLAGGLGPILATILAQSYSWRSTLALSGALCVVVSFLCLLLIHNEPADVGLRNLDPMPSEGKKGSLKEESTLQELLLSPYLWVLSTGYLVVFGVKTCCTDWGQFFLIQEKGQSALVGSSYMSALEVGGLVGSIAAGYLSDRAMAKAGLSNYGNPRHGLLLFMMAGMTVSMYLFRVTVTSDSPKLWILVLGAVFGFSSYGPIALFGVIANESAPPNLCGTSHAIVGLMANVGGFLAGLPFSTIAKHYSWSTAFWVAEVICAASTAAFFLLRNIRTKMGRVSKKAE
The data set is described as follows: Glc-6-Pase hydrolysis in intact human liver microsomes (phosphate release). It counts as biochemical. The note with it: for Percentage inhibition of G6Pase: each compound at its naturally occurring concentration in 0.6 mM extract, 2 mM substrate; for Contribution to Glc-6-Pase system inhibition by the green coffee extract: inhibition of compound divided by inhibition of 0.6 mM total CGAs from the extract. The method, then: A secondary purpose of Example 8 was to determine the inhibitory effects of a series of structurally-related compounds in the extract, such as caffeoylquinic acids and caffeoylferuloylquinic acids. Example 8 tested whether the extract could inhibit the hepatic Glc-6-Pase system by measuring enzymatic activity in human liver microsomes. These experiments were conducted with or without the extract at final CGA concentrations of 0.2, 0.4 and 0.6 mM. The effect of the extract on Glc-6-Pase activity was tested as a function of […] substrate concentration (2-10 mM).
Measurement of Glc-6-Pase Activity in Microsomes: Microsomal Glc-6-Pase activity was measured on the basis of the rate of release of phosphate under the assay conditions that were described by Wallert et al., Kinetic analysis of glucose-6-phosphatase: an investigative approach to carbohydrate metabolism and kinetics. Biochem. Mol. Biol. Educ. 2001, 29, 199-203. The enzyme assays were performed at 37° C. in a final volume of […] containing 100 mM cacodylic acid, pH 6.5 and concentrations of the substrate […] ranging from 2 to 10 mM.
The reaction was started by adding intact microsomes and was stopped with the addition of 3.2 mL of colorimetric reagent [9 volumes of molybdate (0.42% ammonium molybdate in 1 N H2SO4), 2 volumes of 5% SDS and 1 volume of 10% ascorbic acid, freshly prepared and stored on ice for a maximum of 6 h]. All samples were incubated for 30 minutes at 45° C., and the absorbance of the phosphate-molybdate complex was measured at 820 nm.
Microsomal intactness was quantified by measuring Man-6-Pase activity. Anion, W J. Measurement of intactness of rat liver endoplasmic reticulum. Methods Enzymol. 1989, 174, 58-67. In a preliminary study, Glc-6-Pase activity in intact human liver microsomes was determined on the basis of microsomal protein concentration and incubation time to obtain optimal experimental conditions, that is, 100 μg of microsomal proteins and 5 minutes of incubation (data not shown). Quantification was performed at optimal wavelengths (330 nm) for the CGAs during chromatographic separation. Samples were filtered (0.45 μm), and 2 μL was injected directly. The standard deviation for three analyses of the same sample was <5% for all compounds.
Preparation of Test Compounds: Stock solutions of test compounds were prepared in ultrapure water (pH 6.5) and diluted with assay reagent to the final concentrations.
Enzymatic activity was expressed as micromoles of phosphate released per minute per milligram of protein. Results were expressed as means±standard deviation (SD) of three independent experiments. Percentage of inhibition of Glc-6 Pase system activity was calculated by dividing the initial rate of reaction in microsomes that were treated with individual compounds by the initial rate of reaction in untreated microsomes. […] Statistical analysis was performed using an ANOVA test followed by a post hoc Tukey test under a normality assumption (Shapiro Wilk) or Kruskall Wallis nonparametric test followed by Bonferroni adjusted Mann-Whitney test otherwise; p<0.05 was considered to be significant. […]

A short description of data set [2]: Plasma pharmacokinetics of CGA and metabolites after 400 mg green coffee extract, ten volunteers. It is filed as in vivo, human. The note with it: for Cmax / AUC / Tmax: plasma, 400 mg green coffee extract oral, mean ± SD, n = 10; for molar ratio 3,5-diCQA:4,5-diCQA:3,4-diCQA in plasma / molar ratio 5-CQA:4-CQA:3-CQA in plasma: ratios of AUC in plasma; for contribution to AUC of total phenolic compounds in plasma: mean values of plasma AUC; for contribution to total phenolics in plasma: after green coffee extract consumption. The text has this:
In a further phase of the study, ten non-smoker volunteers (22-55 y), five male and five female, were recruited. […] They were asked to eat only animal foods, refined cereal foods and artificial beverages. […] Blood samples were collected into heparin-containing tubes. Baseline blood aliquots were used to determine hematocrit and hemoglobin levels by standard methods. Plasma samples were obtained by centrifugation of the blood samples immediately after being drawn. Urine samples were also collected at baseline interval (minus 2-0 h) and at intervals of 0-2 h; 2-4 h; 4-6 h and 6-8 h after coffee consumption into appropriate plastic containers. Total urine volume was measured for each collection period. Plasma and urine aliquots for determination of CGA were acidified with HCl and kept frozen in liquid nitrogen until analyses. Urine aliquots for determination of creatinine were acidified with HCl and kept at −20° C. until analyses.
(§1) Results of CGA and phenolic acids in urine were normalized by creatinine excretion.

Data set [3] is described as follows: Urinary excretion of CGA and metabolites after 400 mg green coffee extract, ten volunteers. It counts as in vivo, human. On the procedure:
In a further phase of the study, ten non-smoker volunteers (22-55 y), five male and five female, were recruited. Subjects were instructed to avoid consumption of phenolic-containing foods during the 48 h prior to the study. They were asked to eat only animal foods, refined cereal foods and artificial beverages. On the day of the study, after 10-12 h overnight fasting, an I.V. catheter was inserted into the antecubital vein and a baseline heparinized blood sample was obtained. […] Blood samples were collected into heparin-containing tubes. Baseline blood aliquots were used to determine hematocrit and hemoglobin levels by standard methods. Plasma samples were obtained by centrifugation of the blood samples immediately after being drawn. Urine samples were also collected at baseline interval (minus 2-0 h) and at intervals of 0-2 h; 2-4 h; 4-6 h and 6-8 h after coffee consumption into appropriate plastic containers. Total urine volume was measured for each collection period. Plasma and urine aliquots for determination of CGA were acidified with HCl and kept frozen in liquid nitrogen until analyses. Urine aliquots for determination of creatinine were acidified with HCl and kept at −20° C. until analyses.
as §1

Where [4] appears, read: both sexes, human, po, 400 mg, read-out: AUC.
[5] abbreviates: both sexes, human, po, 400 mg, read-out: Tmax.

The structures appear in SMILES notation. Where “and” joins values, the source holds several entries; their conditions need not be identical. Identical values can stand only once. Like-named read-outs stand apart in the source and are kept apart here.

For `O=C(C=Cc1ccc(O)c(O)c1)OC1CC(O)(C(=O)O)CC(O)C1OC(=O)C=Cc1ccc(O)c(O)c1` (stereo not drawn) [3,4-diCQA, 3,4-dicaffeoylquinic acid], in data set [1], the “Percentage inhibition of G6Pase” value amounted to 6.9 ± 4.3% and the “Contribution to Glc-6-Pase system inhibition by the green coffee extract” value was 19%. In addition, in data set [2] (both sexes, human, po, 400 mg), the maximum concentration (Cmax) was determined as 1500 ± 1600 nM. Further, in data set [2] (setting [4]), the AUC amounted to 5 ± 4.9 µM·h. For the same molecule, the Tmax in data set [2] (setting [5]) came to 2.6 ± 1.8 h. Besides, the “molar ratio 3,5-diCQA:4,5-diCQA:3,4-diCQA in plasma” value in data set [2] is 1.0.
Consider `O=C(C=Cc1ccc(O)c(O)c1)OC1CC(O)(C(=O)O)CC(OC(=O)C=Cc2ccc(O)c(O)c2)C1O` (stereo not drawn) [3,5-diCQA, 3,5-dicaffeoylquinic acid], for which the “Contribution to Glc-6-Pase system inhibition by the green coffee extract” value in data set [1] is recorded as 0%. Besides, the maximum concentration (Cmax) in data set [2] (both sexes, human, po, 400 mg) amounted to 2700 ± 2700 nM. The AUC in data set [2] (setting [4]) is 8.7 ± 8.3 µM·h. The time to peak (Tmax) in data set [2] (setting [5]) worked out at 3.2 ± 2.5 h. Further, the “molar ratio 3,5-diCQA:4,5-diCQA:3,4-diCQA in plasma” value in data set [2] is 1.7.
Take `O=C(C=Cc1ccc(O)c(O)c1)OC1CC(O)(C(=O)O)CC(O)C1O` (stereo not drawn) [3-CQA, 3-caffeoylquinic acid]: the “Contribution to Glc-6-Pase system inhibition by the green coffee extract” value in data set [1] is 0%. In addition, in data set [2], the “contribution to AUC of total phenolic compounds in plasma” value is recorded as 5.2%, the exposure (AUC) turned out to be 3.0 ± 4.5 µM·h, the Cmax turned out to be 900 ± 1400 nM and the “molar ratio 5-CQA:4-CQA:3-CQA in plasma” value is recorded as 1.0.
In the case of `O=C(C=Cc1ccc(O)c(O)c1)OC1CC(O)(C(=O)O)CC(O)C1OC(=O)C=Cc1ccc(O)c(O)c1` (stereo not drawn) [4,5-diCQA, 4,5-dicaffeoylquinic acid], in data set [1], the “Percentage inhibition of G6Pase” value is 13% and 12.8 ± 2.6%; the “Contribution to Glc-6-Pase system inhibition by the green coffee extract” value is given as 35%. For the same molecule, in data set [2], the area under the curve (AUC) turned out to be 6.8 ± 5.7 µM·h, the Cmax amounted to 2500 ± 3000 nM, the time to peak (Tmax) is 3.3 ± 2.5 h and the “molar ratio 3,5-diCQA:4,5-diCQA:3,4-diCQA in plasma” value was found to be 1.4.
For `O=C(C=Cc1ccc(O)c(O)c1)OC1C(O)CC(O)(C(=O)O)CC1O` (stereo not drawn) [4-CQA, 4-caffeoylquinic acid], in data set [3] (human, in vivo), the total urinary excretion came out at 0.04 µmol. In addition, in data set [1], the “Percentage inhibition of G6Pase” value is 14% and 14.4 ± 1.2%; the “Contribution to Glc-6-Pase system inhibition by the green coffee extract” value came out at 40%. Further, the Cmax in data set [2] (both sexes, human, po, 400 mg) came to 1400 ± 1100 nM. Also, in data set [2] (setting [4]), the exposure (AUC) turned out to be 4.3 ± 5.4 µM·h. In data set [2] (setting [5]), the Tmax came to 3.6 ± 2.2 h. In data set [2], the “contribution to AUC of total phenolic compounds in plasma” value came out at 7.5% and the “molar ratio 5-CQA:4-CQA:3-CQA in plasma” value came out at 1.4.
Turning to `O=C(O)/C=C/c1ccc(O)c(O)c1` [Caffeic acid], the “contribution to total phenolics in plasma” value in data set [2] turned out to be 6.6%. The maximum concentration (Cmax) in data set [2] (both sexes, human, po, 400 mg) is 1100 ± 900 nM. In addition, the AUC in data set [2] (setting [4]) came to 3.8 ± 3.2 µM·h. For the same molecule, the Tmax in data set [2] (setting [5]) was 3.6 ± 2.1 h.
The matching figures for `COc1cc(/C=C/C(=O)O)ccc1O` [Ferulic acid]: 6.2%, 800 ± 300 nM, 3.6 ± 1.5 µM·h and 2.9 ± 1.8 h.
Regarding `O=C(O)c1cc(O)c(O)c(O)c1` [Gallic Acid], the total urinary excretion amounted to 43.47 µmol in data set [3] (subject 1, 0-8 h after consumption); 9.24 µmol in data set [3] (subject 1, Baseline); 18.67 µmol in data set [3] (subject 2, 0-8 h after consumption); 3.55 µmol in data set [3] (subject 2, Baseline); 9.41 µmol in data set [3] (subject 3, 0-8 h after consumption); 1.86 µmol in data set [3] (subject 3, Baseline). Moreover, the total urinary excretion is 7.98 µmol in data set [3] (subject 4, 0-8 h after consumption); 0.70 µmol in data set [3] (subject 4, Baseline); 25.45 µmol in data set [3] (subject 5, 0-8 h after consumption); 10.19 µmol in data set [3] (subject 5, Baseline); 10.57 µmol in data set [3] (subject 6, Baseline); 14.03 µmol in data set [3] (subject 7, 0-8 h after consumption). Moreover, the total urinary excretion in data set [3] (subject 7, Baseline) came out at 0.25 µmol; in data set [3] (subject 8, 0-8 h after consumption), 68.21 µmol; in data set [3] (subject 8, Baseline), 6.79 µmol; in data set [3] (subject 9, 0-8 h after consumption), 57.69 µmol; in data set [3] (subject 9, Baseline), 1.68 µmol; in data set [3] (subject 10, 0-8 h after consumption), 112.22 µmol. Besides, the total urinary excretion in data set [3] (subject 10, Baseline) was found to be 25.25 µmol.
For the molecule `COc1ccc(/C=C/C(=O)O)cc1O` [Isoferulic acid], the “contribution to total phenolics in plasma” value in data set [2] came out at 6.1%. In data set [2] (both sexes, human, po, 400 mg), the Cmax was determined as 900 ± 200 nM. For the same molecule, the AUC in data set [2] (setting [4]) came to 3.5 ± 1.9 µM·h. Moreover, in data set [2] (setting [5]), the Tmax came out at 2.9 ± 1.8 h.
On to `O=C(O)c1ccc(O)c(O)c1` [Protocatechuic acid], for which the identification in urine entry in data set [3] (human, in vivo) was “not identified”.
In the case of `O=C(O)c1ccccc1` [benzoic acid], in data set [3] (before or after the extract consumption), the identification in urine result was “not identified”.
`COc1cc(CCC(=O)O)ccc1O` [dihydroferulic acid]: in data set [3] (human, in vivo), the identification in urine entry was “not identified”.
For `O=C(O)CNC(=O)c1ccccc1` [hippuric acid], in data set [3] (human, in vivo), the identification in urine result is “not identified”.
Consider `O=C(O)/C=C/c1ccc(O)cc1` [p-coumaric acid], for which, in data set [2], the “contribution to total phenolics in plasma” value is recorded as 1.4%. Besides, in data set [2] (both sexes, human, po, 400 mg), the Cmax was 400 ± 30 nM. Also, the area under the curve (AUC) in data set [2] (setting [4]) turned out to be 0.8 ± 0.2 µM·h. Besides, in data set [2] (setting [5]), the time of peak concentration (Tmax) turned out to be 2.5 ± 1.8 h.
